Source: patent publication US11697648B2, “Fused pyrimidine pyridinone compounds as JAK inhibitors” (THERAVANCE BIOPHARMA R&D IP, LLC, priority 2019, dated 2023)

Tests used:
JAK1 = JAK1 (Homo sapiens (Human), UniProt P23458); assay: Biochemical JAK1 kinase assay (LanthaScreen)
Outline: (§1)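 GST-JAK + GFP-STAT1 peptide, HEPES pH 7.5/MgCl2/EGTA/Brij-35 buffer; cpd preincubation 1 h RT; ATP start, 1 h RT; stop with 10 mM EDTA + 2 nM Tb-anti-pSTAT1; TR-FRET 520/495. 4-parameter IC50 → pKi (Cheng-Prusoff).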

JAK2 = JAK2 (Homo sapiens (Human), UniProt O60674); assay: Biochemical JAK2 kinase assay (LanthaScreen)
Outline: as §1

JAK3 = JAK3 (Homo sapiens (Human), UniProt P52333); assay: Biochemical JAK3 kinase assay (LanthaScreen); details: for JAK3 (pKi)-JAK1 (pKi): selectivity JAK3 over JAK1, difference of pKi
Outline: as §1

Tyk2 = Tyk2 (Homo sapiens (Human), UniProt P29597); assay: Biochemical Tyk2 kinase assay (LanthaScreen)
Outline: as §1

[1] = tested on: IL-2 stimulated STAT5 phosphorylation in Tall-1 human T cell line (JAK3); assay: Cellular JAK3 potency assay: inhibition of IL-2 stimulated pSTAT5 in Tall-1 T cells; format: cell-based; details: IL-2 stimulated pSTAT5, Tall-1 T cells
Outline: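 AlphaLISA SureFire Ultra measures STAT5 Tyr694/699 phosphorylation in lysed Tall-1 human T cells. Cells were exposed to compound for 1 h at 37 °C before a 30 min IL-2 challenge (300 ng/ml final). Values are pIC50 means with standard deviation from signal-versus-concentration curves.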

Caco-2 cell monolayers = assay: Caco-2 permeation assay; format: in vitro ADME; details: 5 μM, A-B direction, with Verapamil (25 μM)
Outline: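 Passive A-to-B permeability with P-gp inhibited by verapamil (25 μM); compound at 5 μM, n=2. Both compartments sampled at t0 and t120 and quantified by LC-MS/MS, giving apparent permeability in cm/sec from flux, area and concentration.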

[2] = Colon and plasma mouse pharmacokinetics; format: in vivo; details: mouse, colon tissue / plasma; male Balb/c mice, 10 mg/kg PO; ratio of the colon AUC to the plasma AUC
Protocol: Assay 5: Colon and Plasma Mouse Pharmacokinetics
To 6 male Balb/c mice was administered 10 mg/kg of compound in 1% HPMC+0.1% Tween-80 by PO administration. At 0.5, 2 and 6 hours after dose administration, animals were anesthetized, and terminal blood samples were collected by cardiac puncture, followed by collection of colon contents and colon tissue.
Blood samples were collected into K2EDTA and stored on wet ice until processed to plasma by centrifugation (12000 rpm at 4° C.). Plasma samples were transferred to cluster tubes and placed on dry ice prior to freezer storage. The colon contents from each animal were collected at each terminal blood collection time point. The colon tissues were flushed with saline and patted dry. The colon and colon content tissues were homogenized using sterile water containing 0.1% formic acid 9:1 (water:tissue, v/w). The homogenized tissues and colon contents were transferred to cluster tubes and placed on dry ice prior to freezer storage. All samples were analyzed using LC/MS/MS against analytical standards.
The composite pharmacokinetic parameters of the compounds were determined by non-compartmental analysis using Phoenix WinNonlin Version 6 (Certara, St. Louis, Mo.) and using mean values from 2 animals/time point. For plasma concentrations below the quantification limit (BQL), the lowest concentration measurable or the BLOQ (below limit of quantification) was used.
A colon to plasma ratio was determined as the ratio of the colon AUC to the plasma AUC.

Chain of Tyk2 (P29597 whole entry): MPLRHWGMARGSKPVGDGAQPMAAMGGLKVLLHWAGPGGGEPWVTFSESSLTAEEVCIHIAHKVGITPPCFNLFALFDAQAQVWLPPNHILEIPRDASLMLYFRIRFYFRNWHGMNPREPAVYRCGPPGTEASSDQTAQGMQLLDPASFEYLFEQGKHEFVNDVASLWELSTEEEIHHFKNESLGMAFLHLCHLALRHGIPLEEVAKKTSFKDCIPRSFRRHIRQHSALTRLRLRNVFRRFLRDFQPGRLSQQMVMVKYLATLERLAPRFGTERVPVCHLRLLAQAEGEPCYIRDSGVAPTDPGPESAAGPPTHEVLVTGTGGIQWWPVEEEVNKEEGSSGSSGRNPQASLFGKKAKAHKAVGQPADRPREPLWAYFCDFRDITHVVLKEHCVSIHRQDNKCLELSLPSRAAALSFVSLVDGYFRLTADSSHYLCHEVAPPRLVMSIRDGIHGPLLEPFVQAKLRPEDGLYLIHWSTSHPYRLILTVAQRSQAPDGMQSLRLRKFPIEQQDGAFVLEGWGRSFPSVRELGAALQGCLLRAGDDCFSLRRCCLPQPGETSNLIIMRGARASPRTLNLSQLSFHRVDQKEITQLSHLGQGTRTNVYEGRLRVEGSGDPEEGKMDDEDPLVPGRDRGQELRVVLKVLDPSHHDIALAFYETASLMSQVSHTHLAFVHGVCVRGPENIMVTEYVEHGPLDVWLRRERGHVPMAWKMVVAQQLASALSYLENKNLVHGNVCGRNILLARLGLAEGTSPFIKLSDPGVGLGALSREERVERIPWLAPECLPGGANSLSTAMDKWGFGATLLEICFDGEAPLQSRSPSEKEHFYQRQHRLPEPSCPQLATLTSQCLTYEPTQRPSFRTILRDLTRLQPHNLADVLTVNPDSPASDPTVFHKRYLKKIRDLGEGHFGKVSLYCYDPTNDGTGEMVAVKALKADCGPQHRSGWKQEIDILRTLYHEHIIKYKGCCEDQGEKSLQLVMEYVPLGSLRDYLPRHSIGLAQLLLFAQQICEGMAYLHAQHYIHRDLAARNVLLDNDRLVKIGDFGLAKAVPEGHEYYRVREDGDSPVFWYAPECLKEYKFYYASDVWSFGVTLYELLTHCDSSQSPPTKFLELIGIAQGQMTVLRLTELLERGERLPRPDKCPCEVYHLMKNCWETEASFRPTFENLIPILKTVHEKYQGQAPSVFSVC
Chain of JAK1 (P23458 whole entry): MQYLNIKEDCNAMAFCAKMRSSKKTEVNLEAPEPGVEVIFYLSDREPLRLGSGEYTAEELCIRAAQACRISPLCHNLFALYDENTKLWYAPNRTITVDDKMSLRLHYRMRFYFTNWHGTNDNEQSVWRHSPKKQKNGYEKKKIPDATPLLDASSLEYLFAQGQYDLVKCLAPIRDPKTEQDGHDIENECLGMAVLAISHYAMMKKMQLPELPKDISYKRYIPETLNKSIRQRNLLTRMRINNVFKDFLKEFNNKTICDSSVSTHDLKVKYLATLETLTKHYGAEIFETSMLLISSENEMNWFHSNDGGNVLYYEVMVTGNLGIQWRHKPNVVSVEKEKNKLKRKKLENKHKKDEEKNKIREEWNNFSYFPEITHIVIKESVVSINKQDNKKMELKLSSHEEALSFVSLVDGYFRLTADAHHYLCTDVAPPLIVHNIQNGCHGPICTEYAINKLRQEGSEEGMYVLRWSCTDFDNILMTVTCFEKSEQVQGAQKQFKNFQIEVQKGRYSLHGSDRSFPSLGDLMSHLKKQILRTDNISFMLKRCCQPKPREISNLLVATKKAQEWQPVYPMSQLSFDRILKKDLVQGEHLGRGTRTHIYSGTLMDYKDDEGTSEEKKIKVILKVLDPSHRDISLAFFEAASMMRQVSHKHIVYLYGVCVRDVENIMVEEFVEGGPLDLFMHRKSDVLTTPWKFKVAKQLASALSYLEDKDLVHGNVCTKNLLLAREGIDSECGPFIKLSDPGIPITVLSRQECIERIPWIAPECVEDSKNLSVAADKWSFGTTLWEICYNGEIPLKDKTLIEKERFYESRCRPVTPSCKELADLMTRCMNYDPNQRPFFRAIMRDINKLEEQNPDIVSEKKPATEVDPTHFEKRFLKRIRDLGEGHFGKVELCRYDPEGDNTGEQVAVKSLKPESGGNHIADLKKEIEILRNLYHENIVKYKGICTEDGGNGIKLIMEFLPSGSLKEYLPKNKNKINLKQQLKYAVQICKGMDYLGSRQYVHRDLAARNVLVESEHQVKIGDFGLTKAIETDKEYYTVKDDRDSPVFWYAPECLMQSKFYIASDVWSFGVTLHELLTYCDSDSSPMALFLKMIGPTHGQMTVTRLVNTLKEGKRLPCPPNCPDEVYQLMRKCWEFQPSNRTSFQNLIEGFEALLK
Chain of JAK2 (O60674 whole entry): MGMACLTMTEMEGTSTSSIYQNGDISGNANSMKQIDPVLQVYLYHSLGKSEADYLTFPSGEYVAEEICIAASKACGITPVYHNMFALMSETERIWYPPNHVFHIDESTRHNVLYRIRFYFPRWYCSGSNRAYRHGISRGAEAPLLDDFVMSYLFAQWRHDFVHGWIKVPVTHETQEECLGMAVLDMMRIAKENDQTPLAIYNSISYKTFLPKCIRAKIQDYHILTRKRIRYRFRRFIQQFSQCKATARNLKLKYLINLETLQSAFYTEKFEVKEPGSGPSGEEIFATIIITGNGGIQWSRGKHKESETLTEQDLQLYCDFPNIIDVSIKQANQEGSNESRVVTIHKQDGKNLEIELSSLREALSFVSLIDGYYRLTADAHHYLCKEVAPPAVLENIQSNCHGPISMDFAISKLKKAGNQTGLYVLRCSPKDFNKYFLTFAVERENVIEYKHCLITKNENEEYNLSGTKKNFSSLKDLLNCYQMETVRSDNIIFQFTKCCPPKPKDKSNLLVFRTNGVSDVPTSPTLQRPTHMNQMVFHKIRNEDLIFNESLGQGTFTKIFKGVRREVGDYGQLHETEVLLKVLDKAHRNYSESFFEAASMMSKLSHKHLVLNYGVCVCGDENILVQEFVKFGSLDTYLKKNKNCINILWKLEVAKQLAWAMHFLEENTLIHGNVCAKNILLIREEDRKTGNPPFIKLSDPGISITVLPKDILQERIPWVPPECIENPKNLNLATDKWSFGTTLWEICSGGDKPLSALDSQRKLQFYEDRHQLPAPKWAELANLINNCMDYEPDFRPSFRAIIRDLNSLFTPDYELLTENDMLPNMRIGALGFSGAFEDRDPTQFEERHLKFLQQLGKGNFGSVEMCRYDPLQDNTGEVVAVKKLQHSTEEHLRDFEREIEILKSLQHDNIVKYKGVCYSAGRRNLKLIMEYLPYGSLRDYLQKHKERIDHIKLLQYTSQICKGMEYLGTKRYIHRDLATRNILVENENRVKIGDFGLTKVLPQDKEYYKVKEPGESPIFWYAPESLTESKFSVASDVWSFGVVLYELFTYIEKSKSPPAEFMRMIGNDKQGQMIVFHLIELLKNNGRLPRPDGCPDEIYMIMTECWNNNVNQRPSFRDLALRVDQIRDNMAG
Chain of JAK3 (P52333 whole entry): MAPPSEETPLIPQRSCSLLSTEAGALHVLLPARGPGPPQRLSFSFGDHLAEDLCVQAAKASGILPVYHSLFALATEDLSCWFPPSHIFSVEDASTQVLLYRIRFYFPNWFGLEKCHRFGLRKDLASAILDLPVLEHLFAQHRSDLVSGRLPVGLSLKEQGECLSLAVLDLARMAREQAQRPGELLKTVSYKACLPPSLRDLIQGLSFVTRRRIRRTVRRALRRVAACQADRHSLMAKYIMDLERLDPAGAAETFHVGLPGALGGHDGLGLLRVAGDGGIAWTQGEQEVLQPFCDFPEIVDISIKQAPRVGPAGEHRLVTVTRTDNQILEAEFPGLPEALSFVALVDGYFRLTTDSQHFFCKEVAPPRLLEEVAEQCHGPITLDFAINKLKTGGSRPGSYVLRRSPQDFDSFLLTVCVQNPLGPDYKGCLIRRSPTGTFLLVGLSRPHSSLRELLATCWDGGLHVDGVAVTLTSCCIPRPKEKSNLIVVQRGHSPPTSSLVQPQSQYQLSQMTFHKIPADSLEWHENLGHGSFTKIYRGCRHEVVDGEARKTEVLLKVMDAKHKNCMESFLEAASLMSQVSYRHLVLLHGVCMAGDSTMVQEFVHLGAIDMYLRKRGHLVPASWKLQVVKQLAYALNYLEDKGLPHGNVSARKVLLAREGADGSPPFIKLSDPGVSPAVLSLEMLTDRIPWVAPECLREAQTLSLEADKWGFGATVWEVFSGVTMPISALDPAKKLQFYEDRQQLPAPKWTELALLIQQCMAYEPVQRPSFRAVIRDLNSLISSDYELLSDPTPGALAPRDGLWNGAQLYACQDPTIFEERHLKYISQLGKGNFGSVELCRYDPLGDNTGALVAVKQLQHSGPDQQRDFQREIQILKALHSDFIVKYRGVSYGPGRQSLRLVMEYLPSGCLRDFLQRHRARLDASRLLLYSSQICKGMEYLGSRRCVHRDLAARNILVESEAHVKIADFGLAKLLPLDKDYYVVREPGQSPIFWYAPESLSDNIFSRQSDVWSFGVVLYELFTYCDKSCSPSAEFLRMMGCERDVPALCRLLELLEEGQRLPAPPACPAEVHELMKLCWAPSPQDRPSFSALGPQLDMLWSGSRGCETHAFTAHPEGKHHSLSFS

Structure (SMILES) | JAK 1 (pKi) (JAK1) | JAK 2 (pKi) (JAK2) | JAK 3 (pKi) (JAK3) | JAK3 (pKi)-JAK1 (pKi) (JAK3) | Tyk 2 (pKi) (Tyk2) | Tall-1 (pIC50) [1] | Caco Kp (Caco-2 cell monolayers) | Kp [2]
C=CC(=O)N1CC(CCn2c(=O)ccc3cnc(Nc4ccc(N5CCN(C(=O)CCSC)CC5)cc4)nc32)C1 [Example 3, 8-(2-(1-acryloylazetidin-3-yl)ethyl)-2-((4-(4-(3-(methylthio)propanoyl)piperazin-1-yl)phenyl)amino)pyrido[2,3-d]pyrimidin-7(8H)-one] | E (E represents a pKi value of 7 or below (Ki of 100 nM or above)) | E (E represents a pKi value of 7 or below (Ki of 100 nM or above)) | A (A represents a pKi value≥10 (Ki≤0.1 nM)) | A (A represents a value of 3 or above) | E (E represents a pKi value of 7 or below (Ki of 100 nM or above)) | B (B represents a pC50 value between 6.7 (included) and 7.5 (IC50 between 200 nM and 32 nM)) | A (A represents a value below 5×10^−6 cm/sec) | > 1000
C=CC(=O)N1CC(CCn2c(=O)ccc3cnc(Nc4cccc(CN5CCN(C(=O)COC)CC5)c4)nc32)C1 [Example 112] | E (E represents a pKi value of 7 or below (Ki of 100 nM or above)) | E (E represents a pKi value of 7 or below (Ki of 100 nM or above)) | A (A represents a pKi value≥10 (Ki≤0.1 nM)) | A (A represents a value of 3 or above) | E (E represents a pKi value of 7 or below (Ki of 100 nM or above)) | B (B represents a pC50 value between 6.7 (included) and 7.5 (IC50 between 200 nM and 32 nM)) | A (A represents a value below 5×10^−6 cm/sec) | > 100
C=CC(=O)N1CC(CCn2c(=O)ccc3cnc(Nc4cnn(CCOC(C)C)c4)nc32)C1 [Example 24] | E (E represents a pKi value of 7 or below (Ki of 100 nM or above)) | E (E represents a pKi value of 7 or below (Ki of 100 nM or above)) | B (B represents pKi value between 9 and 10 (Ki between 1 nM and 0.1 nM)) | A (A represents a value of 3 or above) | E (E represents a pKi value of 7 or below (Ki of 100 nM or above)) | B (B represents a pC50 value between 6.7 (included) and 7.5 (IC50 between 200 nM and 32 nM)) | B (B represents a value between 5×10^−6 and 10×10^−6 cm/sec) | > 100
C=CC(=O)N1CC(CCn2c(=O)ccc3cnc(Nc4cccc(N5CCN(C(=O)CSC)CC5)c4)nc32)C1 [Example 107] | E (E represents a pKi value of 7 or below (Ki of 100 nM or above)) | E (E represents a pKi value of 7 or below (Ki of 100 nM or above)) | B (B represents pKi value between 9 and 10 (Ki between 1 nM and 0.1 nM)) | A (A represents a value of 3 or above) | E (E represents a pKi value of 7 or below (Ki of 100 nM or above)) | B (B represents a pC50 value between 6.7 (included) and 7.5 (IC50 between 200 nM and 32 nM)) | A (A represents a value below 5×10^−6 cm/sec) | > 50
C=CC(=O)N1CC(CCn2c(=O)ccc3cnc(Nc4ccc(N5CCN(S(=O)(=O)CCOC)CC5)cc4)nc32)C1 [Example 76] | E (E represents a pKi value of 7 or below (Ki of 100 nM or above)) | E (E represents a pKi value of 7 or below (Ki of 100 nM or above)) | B (B represents pKi value between 9 and 10 (Ki between 1 nM and 0.1 nM)) | A (A represents a value of 3 or above) | E (E represents a pKi value of 7 or below (Ki of 100 nM or above)) | B (B represents a pC50 value between 6.7 (included) and 7.5 (IC50 between 200 nM and 32 nM)) | B (B represents a value between 5×10^−6 and 10×10^−6 cm/sec) | > 14
C=CC(=O)N1CC(CCn2c(=O)ccc3cnc(Nc4cccc(CN5CCN(C(=O)CCSC)CC5)c4)nc32)C1 [Example 110] | E (E represents a pKi value of 7 or below (Ki of 100 nM or above)) | E (E represents a pKi value of 7 or below (Ki of 100 nM or above)) | A (A represents a pKi value≥10 (Ki≤0.1 nM)) | A (A represents a value of 3 or above) | E (E represents a pKi value of 7 or below (Ki of 100 nM or above)) | A (A represents a pIC50 value≥7.5 (IC50≤32 nM)) | B (B represents a value between 5×10^−6 and 10×10^−6 cm/sec) | > 1000
C=CC(=O)N1CC(CCn2c(=O)ccc3cnc(Nc4ccc(C5=CCN(C)CC5)cc4)nc32)C1 [Example 74] | E (E represents a pKi value of 7 or below (Ki of 100 nM or above)) | E (E represents a pKi value of 7 or below (Ki of 100 nM or above)) | B (B represents pKi value between 9 and 10 (Ki between 1 nM and 0.1 nM)) | A (A represents a value of 3 or above) | E (E represents a pKi value of 7 or below (Ki of 100 nM or above)) | B (B represents a pC50 value between 6.7 (included) and 7.5 (IC50 between 200 nM and 32 nM)) | A (A represents a value below 5×10^−6 cm/sec) | > 100
C=CC(=O)N1CC(CCn2c(=O)ccc3cnc(Nc4ccc(N(CC)CC)cc4)nc32)C1 [Example 88] | E (E represents a pKi value of 7 or below (Ki of 100 nM or above)) | E (E represents a pKi value of 7 or below (Ki of 100 nM or above)) | A (A represents a pKi value≥10 (Ki≤0.1 nM)) | A (A represents a value of 3 or above) | E (E represents a pKi value of 7 or below (Ki of 100 nM or above)) | B (B represents a pC50 value between 6.7 (included) and 7.5 (IC50 between 200 nM and 32 nM)) | D (D represents a value over 30×10^−6 cm/sec) | > 14
C=CC(=O)N1CCN(CCn2c(=O)ccc3cnc(Nc4ccc(N5CCSCC5)cc4)nc32)CC1 [Example 38] | E (E represents a pKi value of 7 or below (Ki of 100 nM or above)) | E (E represents a pKi value of 7 or below (Ki of 100 nM or above)) | B (B represents pKi value between 9 and 10 (Ki between 1 nM and 0.1 nM)) | A (A represents a value of 3 or above) | E (E represents a pKi value of 7 or below (Ki of 100 nM or above)) | B (B represents a pC50 value between 6.7 (included) and 7.5 (IC50 between 200 nM and 32 nM)) | C (C represents a value between 10×10^−6 and 30×10^−6 cm/sec) | > 1000
C=CC(=O)N1CCN(CCn2c(=O)ccc3cnc(Nc4ccc(N5CCN(C(=O)COC)CC5)cc4)nc32)[C@@H](C)C1 [Example 175] | E (E represents a pKi value of 7 or below (Ki of 100 nM or above)) | E (E represents a pKi value of 7 or below (Ki of 100 nM or above)) | B (B represents pKi value between 9 and 10 (Ki between 1 nM and 0.1 nM)) | A (A represents a value of 3 or above) | E (E represents a pKi value of 7 or below (Ki of 100 nM or above)) | B (B represents a pC50 value between 6.7 (included) and 7.5 (IC50 between 200 nM and 32 nM)) | A (A represents a value below 5×10^−6 cm/sec) | > 100
C=CC(=O)N1CC(CCn2c(=O)ccc3cnc(Nc4ccc(CN5CCOCC5)cc4)nc32)C1 [Example 44] | E (E represents a pKi value of 7 or below (Ki of 100 nM or above)) | E (E represents a pKi value of 7 or below (Ki of 100 nM or above)) | B (B represents pKi value between 9 and 10 (Ki between 1 nM and 0.1 nM)) | A (A represents a value of 3 or above) | E (E represents a pKi value of 7 or below (Ki of 100 nM or above)) | B (B represents a pC50 value between 6.7 (included) and 7.5 (IC50 between 200 nM and 32 nM)) | – | > 50
